# Measured values taken from ChEMBL document CHEMBL1201862, “PubChem BioAssay data set” (2004).
# Calls of active or inactive are those of the source.
# Columns and labels:
# Paired box protein Pax-8 = Paired box protein Pax-8 (Homo sapiens, UniProt Q06710); assay: PAX8 transcriptional activity inhibition in RMG-I – RMG-I cells, luciferase, cherry-pick, dose response (AID 687027); type: functional, cell-based;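 further: luciferase reporter driven by Pax8 target thyroperoxidase promoter measured by SteadyGlo luminescence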
# Chain of Paired box protein Pax-8 (Q06710 whole entry): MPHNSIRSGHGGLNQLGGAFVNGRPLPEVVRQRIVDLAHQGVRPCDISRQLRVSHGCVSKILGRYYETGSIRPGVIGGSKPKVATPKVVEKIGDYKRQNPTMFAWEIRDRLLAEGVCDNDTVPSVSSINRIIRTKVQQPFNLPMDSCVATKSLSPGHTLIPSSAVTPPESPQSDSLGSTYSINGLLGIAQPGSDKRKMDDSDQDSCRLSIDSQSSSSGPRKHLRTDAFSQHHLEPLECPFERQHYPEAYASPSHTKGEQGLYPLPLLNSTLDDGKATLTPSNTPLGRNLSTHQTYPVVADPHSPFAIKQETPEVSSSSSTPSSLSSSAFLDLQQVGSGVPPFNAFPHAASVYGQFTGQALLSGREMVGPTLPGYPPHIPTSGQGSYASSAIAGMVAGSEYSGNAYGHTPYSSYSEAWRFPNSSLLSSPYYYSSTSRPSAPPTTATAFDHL
# [1] = COV362 cell viability loss – plate reader, dry powder, SA12, cytotoxicity control for PAX8 inhibitor project, dose response (AID 743144); type: functional, cell-based
# [2] = toxicity toward immortalized ovarian surface epithelium – cell-based, plate reader, dry powder samples, cytotoxicity control for PAX8 inhibitor project, dose response (AID 743045); type: functional
# [3] = OVCAR-3 cell viability loss – plate reader, dry powder samples, PAX8 inhibitor project, dose response (AID 743044); type: functional, cell-based
# [4] = PAX5 cellular inhibition readout – cell-based, plate reader, dry powder samples, selectivity assay for PAX8 inhibitor project, dose response (AID 743047); type: functional;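 further: HEK293 cells carrying a Pax5 driven CD19 promoter luciferase reporter; potency of inhibitors that lower reporter luminescence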
# [5] = IGROV1 cell killing – plate reader, dry powder samples, PAX8 inhibitor project, dose response (AID 743043); type: functional, cell-based; settings: IGROV-1
# [6] = OVCAR4 cell viability loss – plate reader, dry powder, SA11, cytotoxicity control for PAX8 inhibitor project, dose response (AID 743150); type: functional, cell-based; settings: OVCAR-4
# [7] = COV434 cell viability loss – plate reader, dry powder, SA7, cytotoxicity control for PAX8 inhibitor project, dose response (AID 743145); type: functional, cell-based
# [8] = OV-90 cell viability loss – plate reader, dry powder, SA8, PAX8 inhibitor project, dose response (AID 743149); type: functional, cell-based
# [9] = PAX8-dependent cell viability loss – plate reader, dry powder, dose response (AID 743049); type: functional, cell-based
# [10] = biological target: Luciferin 4-monooxygenase (Photinus pyralis, UniProt P08659); assay: inhibition of purified Photinus pyralis luciferase – biochemical, luminescence, dose response (AID 1891)
# Chain of Luciferin 4-monooxygenase (P08659 whole entry): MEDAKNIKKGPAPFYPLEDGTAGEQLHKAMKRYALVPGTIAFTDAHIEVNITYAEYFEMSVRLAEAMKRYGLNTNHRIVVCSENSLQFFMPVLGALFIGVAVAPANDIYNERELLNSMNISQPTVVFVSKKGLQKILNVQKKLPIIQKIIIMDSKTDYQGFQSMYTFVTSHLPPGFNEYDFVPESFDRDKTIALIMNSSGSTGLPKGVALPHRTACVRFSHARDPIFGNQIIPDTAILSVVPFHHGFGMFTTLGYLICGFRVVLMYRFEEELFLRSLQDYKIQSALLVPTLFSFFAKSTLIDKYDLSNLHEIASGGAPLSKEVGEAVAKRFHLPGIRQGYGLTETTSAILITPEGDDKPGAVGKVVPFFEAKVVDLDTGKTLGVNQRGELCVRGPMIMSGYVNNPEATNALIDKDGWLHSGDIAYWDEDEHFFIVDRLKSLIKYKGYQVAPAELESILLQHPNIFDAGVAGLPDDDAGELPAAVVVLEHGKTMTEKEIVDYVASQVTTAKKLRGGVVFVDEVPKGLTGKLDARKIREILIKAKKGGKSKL
# [11] = Luminescence Cell-Based Dose Confirmation HTS to Identify Inhibitors of Platelet Dense Granule Release. [Related pubchem assays: 1663 (Primary HTS), 1678 (Summary of Project)]; type: functional
# [12] = Fluorescence Cell-Based Dose Response to Identify Inhibitors of Thrombin Receptor-Activating Peptide SFLLRN-Mediated P-Selectin Induction on Platelets. [Related pubchem assays: 1663 (Primary HTS), 1889 (retest at dose ), 1891 (counterscreen), 1678 (Project Summary)]; type: functional
# [13] = biological target: Peroxisome proliferator-activated receptor gamma/Nuclear receptor corepressor 2 (Homo sapiens, UniProt P37231+Q9Y618); assay: Counterscreen for NR2E3 inverse agonists: TR-FRET-based biochemical high throughput dose response assay to identify inverse agonists of the interaction between peroxisome proliferator-activated receptor gamma (PPARg) and nuclear receptor co-repressor 2 (NCOR2).; type: functional
# [14] = biological target: Photoreceptor-specific nuclear receptor (Homo sapiens, UniProt Q9Y5X4); assay: ligands suppressing NR2E3 nuclear receptor activity – biochemical, TR-FRET, dose response (AID 463256); type: functional
# Chain of Photoreceptor-specific nuclear receptor (Q9Y5X4 whole entry): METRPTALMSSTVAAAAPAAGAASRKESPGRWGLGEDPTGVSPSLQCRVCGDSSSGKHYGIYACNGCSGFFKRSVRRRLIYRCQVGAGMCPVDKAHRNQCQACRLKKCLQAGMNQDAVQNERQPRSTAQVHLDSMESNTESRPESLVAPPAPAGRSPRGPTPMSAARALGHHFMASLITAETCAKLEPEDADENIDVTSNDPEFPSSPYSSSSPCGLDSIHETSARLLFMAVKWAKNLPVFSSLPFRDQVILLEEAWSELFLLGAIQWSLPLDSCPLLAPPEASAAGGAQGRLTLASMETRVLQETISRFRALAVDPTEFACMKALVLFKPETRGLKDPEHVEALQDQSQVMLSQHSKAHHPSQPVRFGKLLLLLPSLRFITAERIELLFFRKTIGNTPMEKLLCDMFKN
# [15] = Luminescence Cell-Based Dose Retest to Confirm Inhibitors of Cancer Stem Cells. [Related pubchem assays (depositor defined):AID2717, AID2721]; type: functional; settings: Homo sapiens
# [16] = rise of 2N DNA cells, HeLa – IC50, dose response (AID 1117349); type: functional, cell-based
# [17] = CellTiter-Glo luminescence survival assay, SW480 colon tumor line, concentration-response curve, half-maximal inhibitory concentration (AID 1117338); type: functional
# [18] = RKO cell viability reduction, dose response, CellTiter-Glo luminescence (AID 1117322); type: functional
# [19] = cytotoxicity toward HCT116 cells – cell-based, CellTiter-Glo luminescence, IC50, dose response (AID 1117332); type: functional; settings: HCT-116
# [20] = SNU-C1 cell viability reduction, dose response, CellTiter-Glo luminescence (AID 1117323); type: functional, cell-based
# [21] = cytotoxicity toward Colo320 cells – cell-based, CellTiter-Glo luminescence, IC50, dose response (AID 1117334); type: functional; settings: COLO 320
# [22] = rise of 4N DNA cells, HeLa – IC50, dose response (AID 1117351); type: functional, cell-based
# [23] = cytotoxicity toward HT-29 cells – cell-based, CellTiter-Glo luminescence, IC50, dose response (AID 1117330); type: functional
# [24] = Reduced DLD-1 viability, concentration-response, CellTiter-Glo luminescence (AID 1117352); type: functional
# [25] = HCT116 cell viability decrease, GSK3B pretreatment – CellTiter-Glo, IC50, dose response (AID 1117339); type: functional; settings: HCT-116
# [26] = inhibitors of TRPM1-promoter reporter in SK-MEL-5 – cell-based, luciferase, dry powder, set 9, MITF inhibitor project, dose response (AID 651588); type: functional
# [27] = cytotoxicity in MITF-independent A375 cells – cell-based, CellTiter-Glo luminescence, dry powder, set 4, counter-screen for MITF inhibitor project, dose response (AID 624364); type: functional; settings: A-375;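 further: A375 melanoma cells are MITF independent so this is a counter screen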
# [28] = viability loss in MITF-independent A375 cells – cell-based, CellTiter-Glo luminescence, dry powder, set 7, counter-screen for MITF inhibitor project, dose response (AID 624490); type: functional; settings: A-375
# [29] = MITF Orthogonal Assay: MALME3 CTG Assay Measured in Cell-Based System Using Plate Reader - 2084-04_Inhibitor_Dose_DryPowder_Activity_Set6.; type: functional; settings: MALME-3
# [30] = growth inhibition of SK-MEL-5 melanoma cells – cell-based, CellTiter-Glo luminescence, dry powder, set 8, orthogonal assay for MITF inhibitor project, dose response (AID 651586); type: functional
# [31] = growth inhibition of MALME3 cells – cell-based, CellTiter-Glo luminescence, dry powder, set 5, orthogonal assay for MITF inhibitor project, dose response (AID 651584); type: functional; settings: MALME-3
# [32] = cytotoxicity in melanoma parental cells – cell-based, CellTiter-Glo, dry powder, set 6, MITF inhibitor project, dose response (AID 624429); type: functional; settings: SK-MEL-5
# [33] = MITF Orthogonal Assay: SK-MEL-5 CTG Assay Measured in Cell-Based System Using Plate Reader - 2084-02_Inhibitor_Dose_DryPowder_Activity_Set5.; type: functional
# [34] = viability loss in MITF-independent A375 cells – cell-based, CellTiter-Glo luminescence, dry powder, set 6, counter-screen for MITF inhibitor project, dose response (AID 624488); type: functional; settings: A-375
# [35] = cytotoxicity in MITF-independent A375 cells – cell-based, CellTiter-Glo luminescence, dry powder, set 9, counter-screen for MITF modulator project, dose response (AID 651591); type: functional; settings: A-375
# [36] = MITF Measured in Cell-Based System Using Plate Reader - 2084-01_Inhibitor_Dose_DryPowder_Activity_Set6.; type: functional
# [37] = viability loss in MITF-independent A375 cells – cell-based, CellTiter-Glo luminescence, dry powder, set 2, counter-screen for MITF inhibitor project, dose response (AID 624489); type: functional; settings: A-375;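 further: actives are compounds lowering A375 viability meaning general cytotoxicity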
# [38] = MITF Measured in Cell-Based System Using Plate Reader - 2084-01_Inhibitor_Dose_DryPowder_Activity_Set7.; type: functional
# [39] = melanocyte viability loss, MITF-dependent cells, cell-based, plate reader, dry powder, cytotoxicity control, dose response (AID 651920); type: functional
# Phospholipase D2 = Phospholipase D2 (Homo sapiens, UniProt O14939); assay: PLD2 Cellular Concentration Response Study.; type: functional
# Chain of Phospholipase D2 (O14939 whole entry): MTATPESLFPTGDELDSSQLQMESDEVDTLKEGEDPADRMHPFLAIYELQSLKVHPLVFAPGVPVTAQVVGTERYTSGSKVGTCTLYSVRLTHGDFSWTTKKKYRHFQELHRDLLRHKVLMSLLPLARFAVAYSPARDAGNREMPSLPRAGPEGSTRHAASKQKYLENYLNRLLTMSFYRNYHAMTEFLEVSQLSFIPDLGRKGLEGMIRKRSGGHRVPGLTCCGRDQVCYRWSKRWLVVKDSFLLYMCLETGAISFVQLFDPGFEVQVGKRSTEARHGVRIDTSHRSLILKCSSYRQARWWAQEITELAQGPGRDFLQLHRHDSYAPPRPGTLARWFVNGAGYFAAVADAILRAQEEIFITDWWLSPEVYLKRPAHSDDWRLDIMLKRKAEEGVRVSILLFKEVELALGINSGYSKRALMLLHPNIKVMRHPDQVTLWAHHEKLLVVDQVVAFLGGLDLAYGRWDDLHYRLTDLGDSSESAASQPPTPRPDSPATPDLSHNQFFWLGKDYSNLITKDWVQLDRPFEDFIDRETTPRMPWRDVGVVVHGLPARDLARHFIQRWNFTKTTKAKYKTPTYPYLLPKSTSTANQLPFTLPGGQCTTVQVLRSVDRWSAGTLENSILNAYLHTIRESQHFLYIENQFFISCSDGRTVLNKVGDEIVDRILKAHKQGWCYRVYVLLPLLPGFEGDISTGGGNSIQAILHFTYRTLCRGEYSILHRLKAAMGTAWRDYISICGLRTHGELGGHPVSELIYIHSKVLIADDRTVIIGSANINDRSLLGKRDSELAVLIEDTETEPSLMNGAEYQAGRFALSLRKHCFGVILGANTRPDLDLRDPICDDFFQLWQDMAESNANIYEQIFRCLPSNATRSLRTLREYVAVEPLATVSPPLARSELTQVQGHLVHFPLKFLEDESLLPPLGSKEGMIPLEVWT
# Phospholipase D1 = Phospholipase D1 (Homo sapiens, UniProt Q13393); assay: PLD1 Cellular Concentration Response Study.; type: functional
# Chain of Phospholipase D1 (Q13393 whole entry): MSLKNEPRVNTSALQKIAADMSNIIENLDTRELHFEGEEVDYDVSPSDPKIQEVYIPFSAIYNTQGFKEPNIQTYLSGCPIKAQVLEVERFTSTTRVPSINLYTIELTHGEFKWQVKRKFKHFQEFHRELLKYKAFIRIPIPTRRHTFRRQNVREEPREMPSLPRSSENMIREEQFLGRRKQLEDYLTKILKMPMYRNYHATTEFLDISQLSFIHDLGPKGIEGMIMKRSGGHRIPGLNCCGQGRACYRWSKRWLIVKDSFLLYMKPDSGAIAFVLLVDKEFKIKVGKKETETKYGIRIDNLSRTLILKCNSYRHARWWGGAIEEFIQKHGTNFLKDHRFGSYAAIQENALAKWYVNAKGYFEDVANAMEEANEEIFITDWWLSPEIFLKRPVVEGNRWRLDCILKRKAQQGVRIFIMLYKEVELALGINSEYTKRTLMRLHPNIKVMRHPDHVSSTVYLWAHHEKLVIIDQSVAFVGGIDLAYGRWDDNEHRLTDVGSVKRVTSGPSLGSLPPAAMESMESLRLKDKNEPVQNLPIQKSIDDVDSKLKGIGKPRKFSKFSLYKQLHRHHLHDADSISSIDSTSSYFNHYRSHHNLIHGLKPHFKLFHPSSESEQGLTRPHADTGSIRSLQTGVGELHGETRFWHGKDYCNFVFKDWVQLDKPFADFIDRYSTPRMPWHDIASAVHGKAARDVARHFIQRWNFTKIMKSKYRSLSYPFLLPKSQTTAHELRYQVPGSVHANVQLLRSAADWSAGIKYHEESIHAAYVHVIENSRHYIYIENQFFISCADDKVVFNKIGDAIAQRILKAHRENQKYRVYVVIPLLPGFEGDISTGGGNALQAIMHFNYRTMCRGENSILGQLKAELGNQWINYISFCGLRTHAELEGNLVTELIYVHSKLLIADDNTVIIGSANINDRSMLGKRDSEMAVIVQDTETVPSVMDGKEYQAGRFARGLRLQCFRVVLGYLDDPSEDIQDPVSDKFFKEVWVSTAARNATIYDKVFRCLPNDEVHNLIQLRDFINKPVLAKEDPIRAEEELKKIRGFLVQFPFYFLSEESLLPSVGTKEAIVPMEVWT
# [40] = biological target: G-protein coupled receptor 183 (Homo sapiens, UniProt P32249); assay: SAR confirmation of small molecule antagonists of the EBI2 receptor via a luminescent beta-arrestin assa.; type: functional
# Chain of G-protein coupled receptor 183 (P32249 whole entry): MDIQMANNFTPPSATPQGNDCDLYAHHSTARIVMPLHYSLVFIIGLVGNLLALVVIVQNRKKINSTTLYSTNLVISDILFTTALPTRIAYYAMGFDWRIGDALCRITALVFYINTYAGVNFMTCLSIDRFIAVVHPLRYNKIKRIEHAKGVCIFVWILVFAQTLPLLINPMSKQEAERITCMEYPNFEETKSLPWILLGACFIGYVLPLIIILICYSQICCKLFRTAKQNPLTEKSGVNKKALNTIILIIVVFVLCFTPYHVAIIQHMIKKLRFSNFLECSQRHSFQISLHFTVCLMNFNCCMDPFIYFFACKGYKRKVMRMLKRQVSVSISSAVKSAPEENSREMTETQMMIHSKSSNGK
compound,measurement,setting,value
NS(=O)(=O)c1ccc(CCN2C(=O)/C(=C\c3ccc(Cl)cc3)SC2=S)cc1,AC50,Paired box protein Pax-8,3.81 µM (active)
same,AC50,[1],24.9 µM (active)
same,AC50,[2],79.8 µM (active)
same,AC50,[3],22.3 µM (active)
same,AC50,[4],67.7 µM (active)
same,AC50,[5],30.4 µM (active)
same,AC50,[6],48.2 µM (active)
same,AC50,[7],29.8 µM (active)
same,AC50,[8],26.2 µM (active)
same,AC50,[9],15.5 µM (active)
COc1cc2c(cc1OC)-c1cc(N3CCCCCC3)nc(=O)n1CC2,EC50,[10],> 112 µM (not active)
same,EC50,[11],1.66 µM (active)
same,EC50,[12],< 300 nM (active)
Cn1c(SCC(=O)Nc2cccc(F)c2)nnc1-c1cc2ccccc2o1,IC50,[13],1.67 µM (active)
same,IC50,[14],2.61 µM (active)
O=C1[C@H]2CCCC[C@H]2C(=O)N1CCCCN1CCN(c2nsc3ccccc23)CC1,AC50,[15],3.47 µM (active)
same,IC50,[16],> 10 µM (inactive)
same,IC50,[17],5.91 µM (inactive)
same,IC50,[18],546 nM (active)
same,IC50,[19],2.06 µM (active)
same,IC50,[20],9.37 µM (inactive)
same,IC50,[21],13.2 µM (inactive)
same,IC50,[22],> 10 µM (inactive)
same,IC50,[23],2.01 µM (active)
same,IC50,[24],8.24 µM (inactive)
same,IC50,[25],1.67 µM (active)
COC1=C(NS(=O)(=O)c2ccccc2)C(=O)c2ccccc2C1=O,AC50,[26],18.9 µM (active)
same,AC50,[27],> 70 µM (inactive)
same,AC50,[28],> 70 µM (inactive)
same,AC50,[29],31.8 µM (active)
same,AC50,[30],14.5 µM (active)
same,AC50,[31],31.8 µM (active)
same,AC50,[32],16.4 µM (active)
same,AC50,[33],9.13 µM (active)
same,AC50,[34],> 70 µM (inactive)
same,AC50,[35],> 70 µM (inactive)
same,AC50,[36],6.32 µM (active)
same,AC50,[37],> 70 µM (inactive)
same,AC50,[38],7.44 µM (active)
same,AC50,[39],27.5 µM (active)
O=C(NCCN1CCC2(CC1)C(=O)NCN2Cc1ccncc1)c1ccc2ccccc2c1,IC50,Phospholipase D2,850 nM (active)
same,IC50,Phospholipase D1,20 µM (active)
O=C(/C=C/c1ccccc1)N1CCN(Cc2ccc(Cl)cc2)CC1,IC50,[40],98.4 nM (active)
